Measured values taken from patent publication US7803774B2, “Modulators of β-amyloid peptide aggregation” (Praecis Pharmaceuticals, Inc., priority 1999, dated 2010).
Structures can show the parent of a compound that is named as a salt.

Columns and labels:
[1] = target: T1, Aβ1-40 (Homo sapiens, UniProt P05067); experiment: Nucleation assay (turbidity, change in lag time of Aβ aggregation); type: biochemical; settings: for Nucleation assay Δ lag 1.25 μM: 1.25 μM test compound; for Nucleation assay Δ lag 1.25 μM / Nucleation assay Δ lag 5 μM / Nucleation assay Δ lag […] / Nucleation assay data 3 μM: 5 μM Aβ1-40; for Nucleation assay Δ lag 1.25 μM / Nucleation assay Δ lag […]: ratio to control lag time; for Nucleation assay Δ lag 5 μM: 5 μM test compound, ratio of lag time with compound to lag time of control; for Nucleation assay Δ lag […]: […] test compound; for Nucleation assay data: footnote *: measured at 1.25 μM of compound; for Nucleation assay data / Nucleation assay data 0.3 μM / Nucleation assay data 1 μM / Nucleation assay data 3 μM: Table II; for Nucleation assay data 0.3 μM: 0.3 μM test compound; for Nucleation assay data 0.3 μM / Nucleation assay data 1 μM / Nucleation assay data 3 μM: ΔLag ratio to control; for Nucleation assay data 1 μM: 1 μM test compound; for Nucleation assay data 3 μM: 3 μM test compound
T1 construct: first Aβ1-40 peptide is dissolved in HFIP
T1 sequence (P05067 672-711): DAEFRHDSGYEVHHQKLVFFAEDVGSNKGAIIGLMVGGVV
Text: The nucleation assay is employed to determine the ability of test compounds to alter (e.g. inhibit) the early events in formation of β-AP fibers from monomeric β-AP. Characteristic of a nucleated polymerization mechanism, a lag time is observed prior to nucleation, after which the peptide rapidly forms fibers as reflected in a linear rise in turbidity. The time delay before polymerization of β-AP monomer can be quantified as well as the extent of formation of insoluble fiber by light scattering (turbidity). Polymerization reaches equilibrium when the maximum turbidity reaches a plateau. The turbidity of a solution of natural β-AP in the absence or presence of various concentrations of a β-amyloid modulator compound is determined by measuring the apparent absorbance of the solution at 405 nm (A405nm) over time. The threshold of sensitivity for the measurement of turbidity is in the range of 15-20 μM β-AP. […] This assay can be performed using stirring or shaking to accelerate polymerization, thereby increasing the speed of the assay. Moreover the assay can be adapted to a 96-well plate format to screen multiple compounds.
To perform the nucleation assay, first Aβ1-40 peptide is dissolved in HFIP (1,1,1,3,3,3-Hexafluoro-2-propanol; Aldrich 10,522-8) at a concentration of 2 mg peptide/ml and incubated at room temperature for 30 min. HFIP-solubilized peptide is sonicated in a waterbath sonicator for 5 min at highest setting, then evaporated to dryness under a stream of argon. The peptide film is resuspended in anhydrous dimethylsulfoxide (DMSO) at a concentration of 6.9 mg/ml (25× concentration), sonicated for 5 min as before, then filtered through a 0.2 micron nylon syringe filter (VWR cat. No. 28196-050). Test compounds are dissolved in DMSO at a 100× concentration. Four volumes of 25×Aβ1-40 peptide in DMSO are combined with one volume of test compound in DMSO in a glass vial, and mixed to produce a 1:1 molar ratio of AP peptide to test compound. For different molar ratios, test compounds are diluted with DMSO prior to addition to Aβ1-40, in order to keep the final DMSO and Aβ1-40 concentrations constant. […] Ten microliters of the mixture is then added to the bottom of a well of a Corning Costar ultra low binding 96-well plate (Coming Costar, Cambridge Mass.; cat. No. 2500). Ninety microliters of water is added to the well, the plate is shaken on a rotary shaken at a constant speed at room temperature for 30 seconds, an additional 100 μl of 2×PTL buffer (20 mM NaH2PO4, 300 mM NaCl, pH 7.4) is added to the well, the plate is reshaken for 30 seconds and a baseline (t=0) turbidity reading is taken by measuring the apparent absorbance at 405 nm using a Bio-Rad Model 450 Microplate Reader. The plate is then returned to the shaker and shaken continuously for 5 hours. Turbidity readings are taken at 15 minute intervals.
β-amyloid aggregation in the absence of any modulators results in enhanced turbidity of the natural β-AP solution (i.e., an increase in the apparent absorbance at 405 nm over time).
The modulator compounds were evaluated in nucleation assays utilizing 5 μM Aβ1-40 and either 5 μM, 2.5 μM, 1.25 μM, 3 μM, 1 μM, or 0.3 μM test compound. The change in lag time (ΔLag) is presented as the ratio of the lag time observed in the of the test compound (at either 5 μM, 2.5 μM, 1.25 μM, 3 μM, 1 μM, or 0.3 μM) to the lag time of the control.

[2] = BUI#77: IN VIVO: IV BRAIN LEVELS @ 1 HOUR post 1 mL x 1 min IV
Experimental: Table printed on a drawing sheet, Fig. 1
Title: BUI#77: IN VIVO: IV BRAIN LEVELS @ 1 HOUR post 1 mL x 1 min IV
The patent's description of the figure: FIG. 1 is a table depicting the results from a brain uptake assay.
First reader's note: Rows with only a Structure cell (l-v-f-f-a, TFA. l-v-f-f-l, TFA. l-f-f-v-l) are bold group headings for the rows below them; the asterisk printed in the gap before the UNIT DOSE block is kept in its own unheaded column.

[3] = target: T1, Aβ1-40; experiment: Nucleation assay (turbidity, change in lag time of Aβ aggregation); type: biochemical; settings: for Nucleation assay data: footnote *: measured at 0.6 μM of compound, Table II

TFA.N,N-diethyl-(Gaffvl)-NH2 [PPI-1005]
Nucleation assay Δ lag 1.25 μM [1]: 1
Nucleation assay Δ lag 5 μM [1]: 3
Nucleation assay Δ lag […] [1]: 3

TFA.N-isopropyl-(Gaffvl)-NH2 [PPI-970]
Nucleation assay Δ lag 1.25 μM [1]: 1
Nucleation assay Δ lag 5 μM [1]: >5
Nucleation assay Δ lag […] [1]: >5

TFA.N,N-dimethyl-(Gaffv1)-NH2 [PPI-803]
Nucleation assay Δ lag 1.25 μM [1]: <1
Nucleation assay Δ lag 5 μM [1]: <1
Nucleation assay Δ lag […] [1]: <1

TFA.N-methyl-(Gaffvl)-NH2 [PPI-968]
Nucleation assay Δ lag 1.25 μM [1]: 2
Nucleation assay Δ lag 5 μM [1]: >5
Nucleation assay Δ lag […] [1]: >5

TFA.N,N-diethyl-(affvl)-NH2 [PPI-1006]
Nucleation assay Δ lag 1.25 μM [1]: 1
Nucleation assay Δ lag 5 μM [1]: 1
Nucleation assay Δ lag […] [1]: 1

CC(C)C[C@@H](N)C(=O)N[C@@H](C(=O)N[C@H](Cc1ccccc1)C(=O)N[C@H](Cc1ccccc1)C(=O)N[C@H](C)C(N)=O)C(C)C [655 | 655, TFA. H-(lvffa)-NH2]
MAX SOLUBILITY | Brain Levels (nM) + CsA | mean [2]: 50 nM
MAX SOLUBILITY | Brain Levels (nM) | mean [2]: 7.9 nM
UNIT DOSE (2mg/kg IV) | (+)CsA [2]: 22 nM
UNIT DOSE (2mg/kg IV) | ALONE [2]: 3 nM

TFA.N-methyl-(lvffl)-NH2 [PPI-1019]
Nucleation assay data [1]: >2.5
Nucleation assay data [3]: 2.0

2TFA.H-(lfkvl)-NH2 [PPI-1321]
Nucleation assay data 0.3 μM [1]: <1
Nucleation assay data 1 μM [1]: <1
Nucleation assay data 3 μM [1]: <1

TFA.N,N-dimethyl-(affvl)-NH2 [PPI-913]
Nucleation assay Δ lag 1.25 μM [1]: 1
Nucleation assay Δ lag 5 μM [1]: 1
Nucleation assay Δ lag […] [1]: 1

TFA.H-(lf-[F5]f-vl)-NH2 [PPI-1320]
Nucleation assay data 0.3 μM [1]: 1
Nucleation assay data 1 μM [1]: 3
Nucleation assay data 3 μM [1]: >5

TFA.H-(lvffa)-dimethylamide [PPI-993]
Nucleation assay Δ lag 1.25 μM [1]: 1
Nucleation assay Δ lag 5 μM [1]: 1
Nucleation assay Δ lag […] [1]: 1

CC(C)C[C@@H](N)C(=O)N[C@H](Cc1ccccc1)C(=O)N[C@H](Cc1ccccc1)C(=O)N[C@@H](C(=O)N[C@H](CC(C)C)C(N)=O)C(C)C [578 | 578, TFA. H-(lffvl)-NH2]
MAX SOLUBILITY | Brain Levels (nM) + CsA | mean [2]: 57 nM
MAX SOLUBILITY | Brain Levels (nM) | mean [2]: 7.6 nM
UNIT DOSE (2mg/kg IV) | (+)CsA [2]: 16 nM
UNIT DOSE (2mg/kg IV) | ALONE [2]: 2 nM

CN[C@H](CC(C)C)C(=O)N[C@@H](C(=O)N[C@H](Cc1ccccc1)C(=O)N[C@H](Cc1ccccc1)C(=O)N[C@H](C)C(N)=O)C(C)C [1019 | 1019, TFA. N-methyl-(lvffa)-NH2]
MAX SOLUBILITY | Brain Levels (nM) + CsA | mean [2]: 29 nM
MAX SOLUBILITY | Brain Levels (nM) | mean [2]: 7.2 nM
UNIT DOSE (2mg/kg IV) | (+)CsA [2]: 17 nM
UNIT DOSE (2mg/kg IV) | ALONE [2]: 4 nM

TFA.H-(lvffa)-isopropylamide [PPI-992]
Nucleation assay Δ lag 1.25 μM [1]: 1
Nucleation assay Δ lag 5 μM [1]: 3
Nucleation assay Δ lag […] [1]: 1

TFA.H-(Glvffl)-NH2 [PPI-1013]
Nucleation assay Δ lag ([1]; footnote #: measured at 1.25 μM of compound, Table I): >3
Nucleation assay Δ lag ([3]; footnote #: measured at 0.6 μM of compound, Table I): 2

2TFA.H-lvf-NH-NH-fvl-H [PPI-1125]
Nucleation assay data [1]: >2.5
Nucleation assay data [3]: 2.0

TFA.N-ethyl-(Gaffvl)-NH2 [PPI-969]
Nucleation assay Δ lag 1.25 μM [1]: 3
Nucleation assay Δ lag 5 μM [1]: >5
Nucleation assay Δ lag […] [1]: >5

CC(C)C[C@@H](N)C(=O)N[C@H](Cc1c(F)c(F)c(F)c(F)c1F)C(=O)N[C@H](Cc1ccccc1)C(=O)N[C@@H](C(=O)N[C@H](CC(C)C)C(N)=O)C(C)C [PPI-1324, TFA.H-(l-[F5]f-fvl)-NH2]
MAX SOLUBILITY | Brain Levels (nM) + CsA | mean [2]: 23 nM
MAX SOLUBILITY | Brain Levels (nM) | mean [2]: 4.1 nM
UNIT DOSE (2mg/kg IV) | (+)CsA [2]: 9 nM
UNIT DOSE (2mg/kg IV) | ALONE [2]: 2 nM

TFA.H-(lf-D-Cha-vl)-NH2 [PPI-1318]
Nucleation assay data 0.3 μM [1]: 1
Nucleation assay data 1 μM [1]: 2
Nucleation assay data 3 μM [1]: >5
